How the values were obtained:
CYP2D6 = target: T1, CYP2D6 (Homo sapiens, UniProt P10635); assay: Tenatoprazole oxidation by recombinant CYP2D6; format: in vitro ADME; conditions: substrate tenatoprazole 0.10 mM, 0.20 μM CYP2D6
T1 construct: made in house; host or cells: Escherichia coli (membrane fractions)
Description: (§1) Pooled liver microsomes from human samples were obtained from ThermoFisher Scientific (Waltham, MA, USA). Recombinant human P450s were heterologously expressed in Escherichia coli with a pCW vector containing human P450 cDNA (CYP 3A4, 2C9, 2C19, 1A2, 1B1, 2E1, 2D6, and 2A6) and rat NADPH-P450 reductase (CPR). Membrane fractions expressing both P450 and CPR of E. coli were prepared as described previously and were used for the catalytic activity assays.
(§2) The reaction mixture included 0.20 μM P450, 0.40 μM CPR, and tenatoprazole (0.10 mM) in 0.25 mL of 0.10 M potassium phosphate buffer (pH 7.4). The reaction was started by adding NGS and the incubation was continued for the indicated time at 37 °C. Incubation was then stopped by adding ice-chilled ethyl acetate (0.50 mL) and omeprazole (IS) was added to a final concentration of 20 μM. The mixtures were vortexed for 2 min, centrifuged at 1000× g for 20 min, and then the organic layer was taken for drying under nitrogen gas stream. The residues were dissolved in 180 μL of HPLC mobile phase and 30 μL was injected onto a Gemini C18 column (4.6 × 150 mm, 5 μm; Phenomenex, Torrance, CA, USA). The products formed were analyzed by HPLC at A302. […]

CYP2C9 = target: T2, CYP2C9 (Homo sapiens, UniProt P11712); assay: Tenatoprazole oxidation by recombinant CYP2C9; format: in vitro ADME; conditions: substrate tenatoprazole 0.10 mM, 0.20 μM CYP2C9
T2 construct: made in house; host or cells: Escherichia coli (membrane fractions)
Description: as §1, §2

T2 sequence (P11712 whole entry): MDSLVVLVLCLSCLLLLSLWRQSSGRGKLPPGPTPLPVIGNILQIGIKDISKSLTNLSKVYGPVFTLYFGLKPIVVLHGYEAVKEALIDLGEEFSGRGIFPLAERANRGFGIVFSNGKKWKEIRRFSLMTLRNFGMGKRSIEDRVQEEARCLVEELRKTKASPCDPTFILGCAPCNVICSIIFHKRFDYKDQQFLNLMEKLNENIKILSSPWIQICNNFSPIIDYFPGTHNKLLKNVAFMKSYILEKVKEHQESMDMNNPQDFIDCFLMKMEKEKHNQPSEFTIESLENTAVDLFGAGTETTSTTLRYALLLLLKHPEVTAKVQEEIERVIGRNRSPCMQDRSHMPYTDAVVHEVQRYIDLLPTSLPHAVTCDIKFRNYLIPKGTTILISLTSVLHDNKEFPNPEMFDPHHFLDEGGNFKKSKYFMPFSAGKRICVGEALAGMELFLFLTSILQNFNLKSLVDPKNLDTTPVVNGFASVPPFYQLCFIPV
T1 sequence (P10635 whole entry): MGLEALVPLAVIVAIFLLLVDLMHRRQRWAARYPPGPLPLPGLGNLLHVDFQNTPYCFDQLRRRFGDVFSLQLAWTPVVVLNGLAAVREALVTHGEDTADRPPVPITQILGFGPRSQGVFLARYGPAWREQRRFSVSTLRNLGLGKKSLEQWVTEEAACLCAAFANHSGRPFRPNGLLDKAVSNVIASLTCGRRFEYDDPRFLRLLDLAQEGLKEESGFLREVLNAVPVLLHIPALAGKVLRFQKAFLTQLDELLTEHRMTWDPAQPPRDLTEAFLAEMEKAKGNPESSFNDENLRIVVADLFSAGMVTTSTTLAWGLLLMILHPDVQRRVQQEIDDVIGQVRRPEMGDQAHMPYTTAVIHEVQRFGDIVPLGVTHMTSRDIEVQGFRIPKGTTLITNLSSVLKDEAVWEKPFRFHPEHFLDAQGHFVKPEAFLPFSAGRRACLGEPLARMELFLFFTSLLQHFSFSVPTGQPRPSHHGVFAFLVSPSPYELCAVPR

**Q.** Which “formation rate of metabolite” value (CYP2D6) does the source give for `COc1ccc2[nH]c([S+]([O-])Cc3ncc(CO)c(OC)c3C)nc2n1` (centres unmarked) [5′-OH tenatoprazole, 5′-hydroxy tenatoprazole] here?
**A.** 0.1 min⁻¹

**Q.** What about the “formation rate of metabolite” value (CYP2C9) of the same compound?
**A.** 0.1 min⁻¹

Source: publication PMC9863764, “Roles of Human Liver Cytochrome P450 Enzymes in Tenatoprazole Metabolism” (Pharmaceutics, 2022)
